Patent publication US10670605B2, “Cysteine reactive probes and uses thereof” (The Scripps Research Institute, priority 2015, dated 2020)
Blank lines part the entries; values can stand above or below the compound they belong to.

Legend:
Experiment in all cases: Competitive isoTOP-ABPP in situ (fragment-treated cells)
Type in all cases: cell-based
[1] = biological target: cysteines in MDA-MB-231 and Ramos cells (Homo sapiens, UniProt Q9Y2S7); details: 200 μM, insitu, 231
[2] = biological target: T1, cysteines in MDA-MB-231 and Ramos cells (Homo sapiens, UniProt Q8NEC7); details: 200 μM, insitu
T1 sequence (Q8NEC7 1-633): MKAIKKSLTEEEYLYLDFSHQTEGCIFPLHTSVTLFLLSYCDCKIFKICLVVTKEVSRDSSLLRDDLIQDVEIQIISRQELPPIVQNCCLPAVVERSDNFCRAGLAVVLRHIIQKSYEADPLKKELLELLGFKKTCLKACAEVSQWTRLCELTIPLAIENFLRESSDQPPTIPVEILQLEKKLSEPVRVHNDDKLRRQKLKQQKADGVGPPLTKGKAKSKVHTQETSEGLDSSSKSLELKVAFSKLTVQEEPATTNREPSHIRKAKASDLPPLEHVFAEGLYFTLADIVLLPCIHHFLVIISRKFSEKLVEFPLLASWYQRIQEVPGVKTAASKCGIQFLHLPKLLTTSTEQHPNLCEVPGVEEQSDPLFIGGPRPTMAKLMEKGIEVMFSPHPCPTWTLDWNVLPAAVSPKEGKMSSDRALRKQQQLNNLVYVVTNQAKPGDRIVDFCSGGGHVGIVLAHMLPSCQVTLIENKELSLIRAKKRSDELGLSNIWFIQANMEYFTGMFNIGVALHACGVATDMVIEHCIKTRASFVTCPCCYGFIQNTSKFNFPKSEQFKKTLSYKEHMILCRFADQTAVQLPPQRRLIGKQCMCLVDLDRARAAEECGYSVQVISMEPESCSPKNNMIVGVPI

[3] = biological target: cysteines in MDA-MB-231 and Ramos cells (Homo sapiens, UniProt P41226); details: 200 μM, insitu, 231
Chain of cysteines in MDA-MB-231 and Ramos cells (Homo sapiens, UniProt P41226) (P41226 whole entry): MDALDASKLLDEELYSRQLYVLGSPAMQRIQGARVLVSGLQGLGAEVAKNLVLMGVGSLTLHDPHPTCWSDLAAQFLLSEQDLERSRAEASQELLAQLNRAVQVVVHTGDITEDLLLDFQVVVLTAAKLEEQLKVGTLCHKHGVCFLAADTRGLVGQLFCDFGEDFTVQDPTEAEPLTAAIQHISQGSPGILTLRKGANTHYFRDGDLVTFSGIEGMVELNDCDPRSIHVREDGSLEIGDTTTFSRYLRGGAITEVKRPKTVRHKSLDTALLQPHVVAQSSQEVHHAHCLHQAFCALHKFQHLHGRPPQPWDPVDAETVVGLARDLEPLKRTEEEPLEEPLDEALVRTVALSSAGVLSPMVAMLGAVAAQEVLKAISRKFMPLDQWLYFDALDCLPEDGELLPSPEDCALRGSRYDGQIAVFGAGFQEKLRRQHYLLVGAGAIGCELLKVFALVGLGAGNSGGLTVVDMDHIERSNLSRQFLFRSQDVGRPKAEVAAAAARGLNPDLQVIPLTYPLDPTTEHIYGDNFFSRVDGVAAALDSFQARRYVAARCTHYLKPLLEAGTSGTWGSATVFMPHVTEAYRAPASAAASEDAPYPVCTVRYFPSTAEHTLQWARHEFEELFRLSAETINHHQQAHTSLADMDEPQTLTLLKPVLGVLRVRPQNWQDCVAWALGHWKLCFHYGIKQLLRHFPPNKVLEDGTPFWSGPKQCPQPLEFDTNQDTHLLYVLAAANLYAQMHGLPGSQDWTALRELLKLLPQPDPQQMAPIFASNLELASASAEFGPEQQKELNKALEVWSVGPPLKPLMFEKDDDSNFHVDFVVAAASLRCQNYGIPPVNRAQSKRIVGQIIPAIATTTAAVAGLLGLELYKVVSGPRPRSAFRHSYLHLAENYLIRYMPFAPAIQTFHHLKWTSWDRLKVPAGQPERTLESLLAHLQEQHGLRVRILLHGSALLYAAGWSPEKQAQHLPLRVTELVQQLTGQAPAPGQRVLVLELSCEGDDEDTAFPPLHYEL

[4] = biological target: T2, cysteines in MDA-MB-231 and Ramos cells (Homo sapiens, UniProt P42695); details: 200 μM, insitu
T2 sequence (P42695 1-1498): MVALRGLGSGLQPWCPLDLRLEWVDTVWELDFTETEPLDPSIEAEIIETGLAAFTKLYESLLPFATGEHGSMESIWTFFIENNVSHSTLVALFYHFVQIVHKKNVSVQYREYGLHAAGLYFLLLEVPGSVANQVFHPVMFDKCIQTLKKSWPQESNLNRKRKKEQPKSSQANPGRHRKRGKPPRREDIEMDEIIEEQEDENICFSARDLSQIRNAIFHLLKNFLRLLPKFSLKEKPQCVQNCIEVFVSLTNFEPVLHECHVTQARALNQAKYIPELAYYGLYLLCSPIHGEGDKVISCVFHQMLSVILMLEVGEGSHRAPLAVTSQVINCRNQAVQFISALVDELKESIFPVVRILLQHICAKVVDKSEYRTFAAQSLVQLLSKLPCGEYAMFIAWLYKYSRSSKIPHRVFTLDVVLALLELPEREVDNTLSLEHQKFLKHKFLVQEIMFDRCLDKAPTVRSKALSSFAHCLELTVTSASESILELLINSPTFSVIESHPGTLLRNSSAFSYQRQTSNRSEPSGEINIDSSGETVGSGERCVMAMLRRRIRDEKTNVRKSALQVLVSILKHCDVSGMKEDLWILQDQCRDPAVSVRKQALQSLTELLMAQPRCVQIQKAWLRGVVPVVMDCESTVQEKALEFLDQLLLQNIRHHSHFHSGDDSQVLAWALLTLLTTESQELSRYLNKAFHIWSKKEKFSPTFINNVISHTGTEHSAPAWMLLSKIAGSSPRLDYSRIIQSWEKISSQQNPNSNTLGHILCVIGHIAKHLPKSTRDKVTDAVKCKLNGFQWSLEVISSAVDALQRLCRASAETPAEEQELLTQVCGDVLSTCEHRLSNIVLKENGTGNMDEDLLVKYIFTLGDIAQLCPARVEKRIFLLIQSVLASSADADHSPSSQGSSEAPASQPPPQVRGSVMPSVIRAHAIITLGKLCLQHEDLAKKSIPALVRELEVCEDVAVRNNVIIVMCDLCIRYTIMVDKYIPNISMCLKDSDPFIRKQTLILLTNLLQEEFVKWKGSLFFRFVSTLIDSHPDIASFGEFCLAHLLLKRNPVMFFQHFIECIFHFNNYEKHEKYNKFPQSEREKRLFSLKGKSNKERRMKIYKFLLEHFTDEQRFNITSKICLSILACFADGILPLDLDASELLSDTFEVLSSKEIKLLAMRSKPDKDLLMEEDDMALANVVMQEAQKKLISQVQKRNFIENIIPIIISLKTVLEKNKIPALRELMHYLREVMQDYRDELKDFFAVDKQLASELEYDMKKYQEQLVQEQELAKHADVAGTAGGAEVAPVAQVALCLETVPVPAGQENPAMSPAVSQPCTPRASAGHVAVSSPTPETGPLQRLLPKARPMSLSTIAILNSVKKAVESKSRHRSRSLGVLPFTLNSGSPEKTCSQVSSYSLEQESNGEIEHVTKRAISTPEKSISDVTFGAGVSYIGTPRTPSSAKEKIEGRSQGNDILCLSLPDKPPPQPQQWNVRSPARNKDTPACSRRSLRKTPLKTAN

[5] = biological target: cysteines in MDA-MB-231 and Ramos cells (Homo sapiens, UniProt Q13613); details: 200 μM, insitu
[6] = biological target: cysteines in MDA-MB-231 and Ramos cells (Homo sapiens, UniProt Q15796); details: 200 μM, insitu
Chain of cysteines in MDA-MB-231 and Ramos cells (Homo sapiens, UniProt Q15796) (Q15796 whole entry): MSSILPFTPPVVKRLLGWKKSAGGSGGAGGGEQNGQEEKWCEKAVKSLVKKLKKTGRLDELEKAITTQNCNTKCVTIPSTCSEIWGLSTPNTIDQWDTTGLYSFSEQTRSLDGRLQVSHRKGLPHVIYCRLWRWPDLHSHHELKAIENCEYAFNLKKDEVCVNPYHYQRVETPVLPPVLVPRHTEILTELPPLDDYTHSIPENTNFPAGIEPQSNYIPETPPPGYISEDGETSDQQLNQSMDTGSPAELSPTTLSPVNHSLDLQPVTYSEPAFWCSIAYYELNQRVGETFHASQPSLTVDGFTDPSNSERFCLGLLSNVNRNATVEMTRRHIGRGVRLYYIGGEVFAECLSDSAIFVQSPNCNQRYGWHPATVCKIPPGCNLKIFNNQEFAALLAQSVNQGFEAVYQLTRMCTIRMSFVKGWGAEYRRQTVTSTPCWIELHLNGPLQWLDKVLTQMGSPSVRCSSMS

[7] = biological target: cysteines in MDA-MB-231 and Ramos cells (Homo sapiens, UniProt Q13232); details: 200 μM, insitu
Chain of cysteines in MDA-MB-231 and Ramos cells (Homo sapiens, UniProt Q13232) (Q13232 whole entry): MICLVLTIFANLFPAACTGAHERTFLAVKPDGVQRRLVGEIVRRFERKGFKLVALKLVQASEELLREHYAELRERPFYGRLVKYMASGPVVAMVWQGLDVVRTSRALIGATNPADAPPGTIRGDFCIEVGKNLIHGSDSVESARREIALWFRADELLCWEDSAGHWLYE

[8] = biological target: cysteines in MDA-MB-231 and Ramos cells (Homo sapiens, UniProt Q99986)
Chain of cysteines in MDA-MB-231 and Ramos cells (Homo sapiens, UniProt Q99986) (Q99986 whole entry): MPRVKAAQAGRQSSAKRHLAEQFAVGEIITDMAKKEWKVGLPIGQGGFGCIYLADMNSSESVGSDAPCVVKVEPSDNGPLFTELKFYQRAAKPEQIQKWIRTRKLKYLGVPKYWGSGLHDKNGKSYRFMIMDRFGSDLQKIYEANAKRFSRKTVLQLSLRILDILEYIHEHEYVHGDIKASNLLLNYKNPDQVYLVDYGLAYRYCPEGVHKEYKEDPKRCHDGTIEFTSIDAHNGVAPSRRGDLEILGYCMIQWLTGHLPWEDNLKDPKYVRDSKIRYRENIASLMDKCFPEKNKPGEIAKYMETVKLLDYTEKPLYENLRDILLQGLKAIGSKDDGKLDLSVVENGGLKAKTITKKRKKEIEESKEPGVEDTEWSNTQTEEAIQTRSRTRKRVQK

[9] = biological target: cysteines in MDA-MB-231 and Ramos cells (Homo sapiens, UniProt Q9P2X3); details: 200 μM, insitu, 231
Chain of cysteines in MDA-MB-231 and Ramos cells (Homo sapiens, UniProt Q9P2X3) (Q9P2X3 whole entry): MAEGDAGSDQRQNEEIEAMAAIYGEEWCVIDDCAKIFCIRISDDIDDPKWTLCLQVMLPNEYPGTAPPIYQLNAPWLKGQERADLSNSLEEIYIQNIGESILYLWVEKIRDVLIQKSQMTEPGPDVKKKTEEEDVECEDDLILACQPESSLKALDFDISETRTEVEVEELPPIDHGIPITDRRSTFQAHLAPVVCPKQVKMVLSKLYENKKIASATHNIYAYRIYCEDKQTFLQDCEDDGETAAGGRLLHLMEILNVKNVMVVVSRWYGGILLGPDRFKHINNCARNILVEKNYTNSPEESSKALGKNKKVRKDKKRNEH

[10] = biological target: cysteines in MDA-MB-231 and Ramos cells (Homo sapiens, UniProt P16455); details: 200 μM, insitu, ramos
Chain of cysteines in MDA-MB-231 and Ramos cells (Homo sapiens, UniProt P16455) (P16455 whole entry): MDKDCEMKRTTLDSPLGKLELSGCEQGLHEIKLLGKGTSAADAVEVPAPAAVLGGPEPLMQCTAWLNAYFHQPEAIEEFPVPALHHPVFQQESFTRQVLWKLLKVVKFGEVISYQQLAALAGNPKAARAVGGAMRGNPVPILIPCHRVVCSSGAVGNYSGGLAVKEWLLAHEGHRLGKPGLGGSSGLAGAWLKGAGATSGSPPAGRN

[11] = biological target: cysteines in MDA-MB-231 and Ramos cells (Homo sapiens, UniProt A2A288); details: 200 μM, insitu, ramos
Chain of cysteines in MDA-MB-231 and Ramos cells (Homo sapiens, UniProt A2A288) (A2A288 whole entry): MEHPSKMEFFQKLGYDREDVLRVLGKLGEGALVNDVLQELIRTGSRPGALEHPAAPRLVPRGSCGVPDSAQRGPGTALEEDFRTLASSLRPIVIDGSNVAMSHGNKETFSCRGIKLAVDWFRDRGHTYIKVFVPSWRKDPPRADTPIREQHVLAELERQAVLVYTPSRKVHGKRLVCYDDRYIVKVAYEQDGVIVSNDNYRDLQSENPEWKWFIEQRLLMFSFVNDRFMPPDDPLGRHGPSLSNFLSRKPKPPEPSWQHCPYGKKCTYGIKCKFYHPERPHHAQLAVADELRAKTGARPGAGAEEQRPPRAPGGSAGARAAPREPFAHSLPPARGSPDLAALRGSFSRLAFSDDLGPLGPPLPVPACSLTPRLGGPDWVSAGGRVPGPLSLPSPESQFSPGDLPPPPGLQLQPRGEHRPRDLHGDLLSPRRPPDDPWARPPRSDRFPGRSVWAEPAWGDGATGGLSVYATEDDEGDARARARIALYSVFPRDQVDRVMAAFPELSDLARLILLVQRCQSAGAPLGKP

[12] = biological target: cysteines in MDA-MB-231 and Ramos cells (Homo sapiens, UniProt Q6PJG6); details: 200 μM, insitu, ramos
Chain of cysteines in MDA-MB-231 and Ramos cells (Homo sapiens, UniProt Q6PJG6) (Q6PJG6 whole entry): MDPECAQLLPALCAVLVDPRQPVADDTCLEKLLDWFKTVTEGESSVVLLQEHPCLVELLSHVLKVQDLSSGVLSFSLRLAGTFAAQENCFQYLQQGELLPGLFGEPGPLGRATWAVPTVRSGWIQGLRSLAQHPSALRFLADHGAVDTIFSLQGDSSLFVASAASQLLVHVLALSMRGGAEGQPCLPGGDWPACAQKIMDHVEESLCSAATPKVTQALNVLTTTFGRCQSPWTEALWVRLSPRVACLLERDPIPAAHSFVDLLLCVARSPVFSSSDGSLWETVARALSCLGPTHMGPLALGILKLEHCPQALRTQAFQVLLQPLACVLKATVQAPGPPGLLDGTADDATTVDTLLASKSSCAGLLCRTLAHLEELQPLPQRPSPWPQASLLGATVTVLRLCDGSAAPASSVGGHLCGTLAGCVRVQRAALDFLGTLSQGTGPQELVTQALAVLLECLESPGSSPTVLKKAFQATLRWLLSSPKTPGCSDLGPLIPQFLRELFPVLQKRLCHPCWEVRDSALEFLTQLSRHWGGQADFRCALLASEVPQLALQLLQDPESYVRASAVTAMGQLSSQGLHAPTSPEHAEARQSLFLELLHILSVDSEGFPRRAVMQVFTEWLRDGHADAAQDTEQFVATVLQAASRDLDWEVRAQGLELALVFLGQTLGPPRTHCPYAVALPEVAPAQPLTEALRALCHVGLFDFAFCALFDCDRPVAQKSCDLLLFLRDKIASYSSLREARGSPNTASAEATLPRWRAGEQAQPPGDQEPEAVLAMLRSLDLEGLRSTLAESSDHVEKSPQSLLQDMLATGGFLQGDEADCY

Chain of cysteines in MDA-MB-231 and Ramos cells (Homo sapiens, UniProt Q9Y2S7) (Q9Y2S7 52-368): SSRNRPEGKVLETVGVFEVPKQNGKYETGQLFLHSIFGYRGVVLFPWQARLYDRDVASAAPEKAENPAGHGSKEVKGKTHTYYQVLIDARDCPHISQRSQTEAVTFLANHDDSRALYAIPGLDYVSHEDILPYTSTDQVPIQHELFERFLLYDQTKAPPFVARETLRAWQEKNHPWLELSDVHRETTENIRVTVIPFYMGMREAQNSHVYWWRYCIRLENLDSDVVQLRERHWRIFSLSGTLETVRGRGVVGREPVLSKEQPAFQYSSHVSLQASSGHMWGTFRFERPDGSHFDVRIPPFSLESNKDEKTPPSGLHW

isoTOP-ABPP ratio Q9Y2S7_C143 [1]: 1.2
Structure (SMILES): Cc1ccc(C=C(C#N)C(=O)NCCN2CCOCC2)cc1 [compound 41]

isoTOP-ABPP ratio A2A288_C367 [11]: 1.3
isoTOP-ABPP ratio Q13232_C158 ([7]; ramos): 1.5
isoTOP-ABPP ratio Q13613_C117 ([5]; ramos): 1.5
isoTOP-ABPP ratio Q15796_C81 ([6]; ramos): 1.3
isoTOP-ABPP ratio Q6PJG6_C673 [12]: 4.6
Structure (SMILES): O=C(CCl)N1CCN(CC(=O)N2CCOCC2)CC1 [compound 29]

isoTOP-ABPP ratio A2A288_C367 [11]: 1.9
isoTOP-ABPP ratio, P16455_C145 [10]: 1.2
isoTOP-ABPP ratio Q6PJG6_C673 [12]: 20.0
isoTOP-ABPP ratio Q9P2X3_C195 [9]: 0.5
Structure (SMILES): C=CC(=O)N(Cc1cccnc1)c1cc(C(F)(F)F)cc(C(F)(F)F)c1 [compound 31]

More lines, now with the values behind:

Structure (SMILES): O=C(CCl)NCCc1c[nH]c2ccccc12 [compound 13]
isoTOP-ABPP ratio, cysteine Q8NEC7_C140 [2]; 231: 1.8
isoTOP-ABPP ratio, cysteine Q8NEC7_C140 ([2]; ramos): 20.0

Structure (SMILES): O=C(CCl)NC12CC3CC(CC(C3)C1)C2 [compound 21]
isoTOP-ABPP ratio, cysteine P41226_C599 [3]: 1.0
isoTOP-ABPP ratio, cysteine P42695_C541 [4]; 231: 2.3
isoTOP-ABPP ratio, cysteine Q13613_C117 [5]; 231: 0.9
isoTOP-ABPP ratio, cysteine Q15796_C81 [6]; 231: 1.3

Structure (SMILES): CC1CCc2ccccc2N1C(=O)CCl (centres unmarked) [compound 45]
isoTOP-ABPP ratio Q13232_C158 [7]; 231: 8.8
isoTOP-ABPP ratio Q8NEC7_C140 [2]; 231: 20.0
reactivity profile of liganded cysteine Q99986_C50 with fragment electrophile (isoTOP-ABPP ratio) ([8]; cysteine Q99986_C50, fragment 200 μM, in situ, 231 (MDA-MB-231) cells): 4.1
isoTOP-ABPP ratio Q9P2X3_C195 [9]: 20.0

Structure (SMILES): O=C(CCl)N1CCN(S(=O)(=O)c2ccccc2F)CC1 [compound 10]
isoTOP-ABPP ratio, cysteine P16455_C145 [10]: 20.0
isoTOP-ABPP ratio, cysteine P41226_C599 [3]: 8.0
isoTOP-ABPP ratio, cysteine P42695_C541 [4]; 231: 20.0
isoTOP-ABPP ratio, cysteine P42695_C541 ([4]; ramos): 6.5
isoTOP-ABPP ratio, cysteine Q99986_C50 ([8]; 200 μM, insitu, ramos): 0 .7
isoTOP-ABPP ratio, cysteine Q9Y2S7_C143 [1]: 13.9
